Assay results from patent publication US10745382B2 (BRISTOL-MYERS SQUIBB COMPANY, priority 2015, dated 2020).

Biological target: T1, PD-1/PD-L1 (Homo sapiens, UniProt Q9NZQ7)
T1 construct: made in house; host or cells: HEK293T
Assay: PD-1/PD-L1 Homogenous Time-Resolved Fluorescence (HTRF) binding assay
Conditions: PD-L1-His 10 nM, PD-1-Ig 20 nM; value given as range class; read-out: Range or IC50
Procedure, shortened: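 Additional pairs run were PD-1-Ig with PD-L2-His (20 & 5 nM) and CD80-His with PD-L1-Ig (100 & 10 nM), all human proteins. Buffer: dPBS plus 0.1% BSA, 0.05% Tween-20; time-resolved FRET read-out via 1 nM Eu-cryptate anti-Ig and 20 nM APC anti-His, final concentrations.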

T1 sequence (Q9NZQ7 with tags, fused parts or gaps): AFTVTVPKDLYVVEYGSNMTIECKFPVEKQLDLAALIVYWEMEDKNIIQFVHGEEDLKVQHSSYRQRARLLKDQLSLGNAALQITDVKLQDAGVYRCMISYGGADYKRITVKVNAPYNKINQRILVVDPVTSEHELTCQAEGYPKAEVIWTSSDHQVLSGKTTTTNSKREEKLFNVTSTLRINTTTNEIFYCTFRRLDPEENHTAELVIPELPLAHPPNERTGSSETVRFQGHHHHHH

Row | Compound | IC50 [nM]
1 | CC(=O)NC1CCN(CCCOc2cccc(-c3cccc(COc4cc(OCc5cncc(C#N)c5)c(CN5CCCC[C@H]5C(=O)O)cc4Cl)c3C)c2Cl)CC1 [Example 1078, (S)-1-(4-((3′-(3-(4-acetamidopiperidin-1-yl)propoxy)-2′-chloro-2-methyl-[1,1′-biphenyl]-3-yl)methoxy)-5-chloro-2-((5-cyanopyridin-3-yl)methoxy)benzyl)piperidine-2-carboxylic Acid] | 0.21 to 10
2 | CC(=O)NC1CCN(CCCOc2cccc(-c3cccc(COc4cc(OCc5cncc(C#N)c5)c(CN[C@](C)(CO)C(=O)O)cc4Cl)c3C)c2Cl)CC1 [Example 1079, (R)-2-((4-((3′-(3-(4-acetamidopiperidin-1-yl)propoxy)-2′-chloro-2-methyl-[1,1′-biphenyl]-3-yl)methoxy)-5-chloro-2-((5-cyanopyridin-3-yl)methoxy)benzyl)amino)-3-hydroxy-2-methylpropanoic Acid] | 0.21 to 10
3 | Cc1c(COc2cc(OCc3cncc(C#N)c3)c(CN[C@H](CO)C(=O)O)cc2Cl)cccc1-c1cccc(OCCCN2CC(O)C2)c1C [Example 1080, (R)-2-((5-chloro-2-((5-cyanopyridin-3-yl)methoxy)-4-((3′-(3-(3-hydroxyazetidin-1-yl)propoxy)-2,2′-dimethyl-[1,1′-biphenyl]-3-yl)methoxy)benzyl)amino)-3-hydroxypropanoic Acid] | 0.21 to 10
4 | Cc1c(COc2cc(OCc3cncc(S(C)(=O)=O)c3)c(CN3CCCC[C@H]3C(=O)O)cc2Cl)cccc1-c1cccc(OCCCN2C[C@H](O)C[C@H]2C(=O)O)c1Cl [Example 1081, (S)-1-(4-((3′-(3-((2S,4R)-2-carboxy-4-hydroxypyrrolidin-1-yl)propoxy)-2′-chloro-2-methyl-[1,1′-biphenyl]-3-yl)methoxy)-5-chloro-2-((5-(methylsulfonyl)pyridin-3-yl)methoxy)benzyl)piperidine-2-carboxylic Acid] | 0.21 to 10
5 | COC(=O)[C@@H]1CCN(CCCOc2cccc(-c3cccc(COc4cc(OCc5cncc(S(C)(=O)=O)c5)c(CN[C@](C)(CO)C(=O)O)cc4Cl)c3C)c2C)C1 [Example 1082, (R)-2-((5-chloro-4-((3′-(3-((R)-3-(methoxycarbonyl)pyrrolidin-1-yl)propoxy)-2,2′-dimethyl-[1,1′-biphenyl]-3-yl)methoxy)-2-((5-(methylsulfonyl)pyridin-3-yl)methoxy)benzyl)amino)-3-hydroxy-2-methylpropanoic Acid] | 0.21 to 10
6 | Cc1c(COc2cc(OCc3cncc(S(C)(=O)=O)c3)c(CN[C@](C)(CO)C(=O)O)cc2Cl)cccc1-c1cccc(OCCCN2CC[C@@H](C(=O)O)C2)c1C [Example 1083, (R)-1-(3-((3′-((4-((((R)-2-carboxy-1-hydroxypropan-2-yl)amino)methyl)-2-chloro-5-((5-(methylsulfonyl)pyridin-3-yl)methoxy)phenoxy)methyl)-2,2′-dimethyl-[1,1′-biphenyl]-3-yl)oxy)propyl)pyrrolidine-3-carboxylic Acid] | 0.21 to 10
7 | Cc1c(COc2cc(OCc3cncc(S(C)(=O)=O)c3)c(CN3CCCC[C@H]3C(=O)O)cc2Cl)cccc1-c1cccc(OCCCN2CC[C@@H](C(=O)O)C2)c1C [Example 1084, (S)-1-(4-((3′-(3-((R)-3-carboxypyrrolidin-1-yl)propoxy)-2,2′-dimethyl-[1,1′-biphenyl]-3-yl)methoxy)-5-chloro-2-((5-(methylsulfonyl)pyridin-3-yl)methoxy)benzyl)piperidine-2-carboxylic Acid] | 0.21 to 10
8 | Cc1c(COc2cc(OCc3cncc(C#N)c3)c(CN3CCCC[C@H]3C(=O)O)cc2Cl)cccc1-c1cccc(OCCCN2C[C@H](O)C[C@H]2C(N)=O)c1Cl [Example 1085, (S)-1-(4-((3′-(3-((2S,4R)-2-carbamoyl-4-hydroxypyrrolidin-1-yl)propoxy)-2′-chloro-2-methyl-[1,1′-biphenyl]-3-yl)methoxy)-5-chloro-2-((5-cyanopyridin-3-yl)methoxy)benzyl)piperidine-2-carboxylic Acid] | 0.21 to 10
9 | Cc1c(COc2cc(OCc3cncc(C#N)c3)c(CN[C@](C)(CO)C(=O)O)cc2Cl)cccc1-c1cccc(OCCCN2C[C@H](O)C[C@H]2C(N)=O)c1Cl [Example 1086, (R)-2-((4-((3′-(3-((2S,4R)-2-carbamoyl-4-hydroxypyrrolidin-1-yl)propoxy)-2′-chloro-2-methyl-[1,1′-biphenyl]-3-yl)methoxy)-5-chloro-2-((5-cyanopyridin-3-yl)methoxy)benzyl)amino)-3-hydroxy-2-methylpropanoic Acid] | 0.21 to 10
10 | Cc1c(COc2cc(OCc3cncc(C#N)c3)c(CN3CCCC[C@H]3C(=O)O)cc2Cl)cccc1-c1cccc(OC/C=C/CN2CC[C@@H](O)C2)c1 [Example 1087, (S)-1-(5-chloro-2-((5-cyanopyridin-3-yl)methoxy)-4-((3′-(((E)-4-((R)-3-hydroxypyrrolidin-1-yl)but-2-en-1-yl)oxy)-2-methyl-[1,1′-biphenyl]-3-yl)methoxy)benzyl)piperidine-2-carboxylic Acid] | 10 to 100
11 | Cc1c(COc2cc(OCc3cncc(C#N)c3)c(CN3CCCC[C@H]3C(=O)O)cc2Cl)cccc1-c1cccc(OCCCN2CC[C@@](O)(c3ccc(Cl)cc3)[C@](C)(O)C2)c1Cl [Example 1088, (S)-1-(5-chloro-4-((2′-chloro-3′-(3-((3R,4R)-4-(4-chlorophenyl)-3,4-dihydroxy-3-methylpiperidin-1-yl)propoxy)-2-methyl-[1,1′-biphenyl]-3-yl)methoxy)-2-((5-cyanopyridin-3-yl)methoxy)benzyl)piperidine-2-carboxylic Acid] | 0.21 to 10
12 | Cc1c(COc2cc(OCc3cncc(C#N)c3)c(CN[C@H](CO)C(=O)O)cc2Cl)cccc1-c1cccc(OCCCN2CC[C@@](O)(c3ccc(Cl)cc3)[C@](C)(O)C2)c1Cl [Example 1089, (5-chloro-4-((2′-chloro-3′-(3-((3R,4R)-4-(4-chlorophenyl)-3,4-dihydroxy-3-methylpiperidin-1-yl)propoxy)-2-methyl-[1,1′-biphenyl]-3-yl)methoxy)-2-((5-cyanopyridin-3-yl)methoxy)benzyl)-D-serine] | 0.21 to 10
13 | Cc1c(COc2cc(OCc3cncc(S(C)(=O)=O)c3)c(CN3CCCC[C@H]3C(=O)O)cc2Cl)cccc1-c1cccc(OCCCN2CC[C@H](O)C2)c1C [Example 1090, (S)-1-(5-chloro-4-((3′-(3-((S)-3-hydroxypyrrolidin-1-yl)propoxy)-2,2′-dimethyl-[1,1′-biphenyl]-3-yl)methoxy)-2-((5-(methylsulfonyl)pyridin-3-yl)methoxy)benzyl)piperidine-2-carboxylic Acid] | 0.21 to 10
14 | COC(=O)C1(O)CCN(CCCOc2cccc(-c3cccc(COc4cc(OCc5cncc(C#N)c5)c(CN5CCC(O)(C(=O)OC)CC5)cc4Cl)c3C)c2C)CC1 [Example 1091, methyl 1-(5-chloro-2-((5-cyanopyridin-3-yl)methoxy)-4-((3′-(3-(4-hydroxy-4-(methoxycarbonyl)piperidin-1-yl)propoxy)-2,2′-dimethyl-[1,1′-biphenyl]-3-yl)methoxy)benzyl)-4-hydroxypiperidine-4-carboxylate] | 0.21 to 10
15 | Cc1cc(OCCCCN2CC[C@@H](O)C2)ccc1-c1cccc(COc2cc(OCc3cncc(C#N)c3)c(CN[C@H](CO)C(=O)O)cc2Cl)c1C [Example 1092, (5-chloro-2-((5-cyanopyridin-3-yl)methoxy)-4-((4′-(4-((R)-3-hydroxypyrrolidin-1-yl)butoxy)-2,2′-dimethyl-[1,1′-biphenyl]-3-yl)methoxy)benzyl)-D-serine] | 0.21 to 10
16 | Cc1cc(OCCCCN2CC[C@@H](O)C2)ccc1-c1cccc(COc2cc(OCc3cncc(C#N)c3)c(CN3CCCC[C@H]3C(=O)O)cc2Cl)c1C [Example 1093, (S)-1-(5-chloro-2-((5-cyanopyridin-3-yl)methoxy)-4-((4′-(4-((R)-3-hydroxypyrrolidin-1-yl)butoxy)-2,2′-dimethyl-[1,1′-biphenyl]-3-yl)methoxy)benzyl)piperidine-2-carboxylic Acid] | 0.21 to 10
17 | Cc1c(COc2cc(OCc3cncc(C(N)=O)c3)c(CN[C@](C)(CO)C(=O)O)cc2Cl)cccc1-c1cccc(OCCCN2CCC(O)(C(=O)O)CC2)c1C [Example 1094, (R)-1-(3-((3′-((5-((5-carbamoylpyridin-3-yl)methoxy)-4-(((2-carboxy-1-hydroxypropan-2-yl)amino)methyl)-2-chlorophenoxy)methyl)-2,2′-dimethyl-[1,1′-biphenyl]-3-yl)oxy)propyl)-4-hydroxypiperidine-4-carboxylic Acid] | 0.21 to 10
18 | CCOC(=O)C1(O)CCN(CCCOc2cccc(-c3cccc(COc4cc(OCc5cncc(C#N)c5)c(CN[C@@H](CO)C(=O)O)cc4Cl)c3C)c2Cl)CC1 [Example 1095, (5-chloro-4-((2′-chloro-3′-(3-(4-(ethoxycarbonyl)-4-hydroxypiperidin-1-yl)propoxy)-2-methyl-[1,1′-biphenyl]-3-yl)methoxy)-2-((5-cyanopyridin-3-yl)methoxy)benzyl)-L-serine] | 0.21 to 10
19 | Cc1c(COc2cc(OCc3cncc(C#N)c3)c(CN3CCCC[C@H]3C(=O)O)cc2Cl)cccc1-c1cccc(OCCCN2CCC(O)(C(=O)O)CC2)c1Cl [Example 1097, (S)-1-(4-((3′-(3-(4-carboxy-4-hydroxypiperidin-1-yl)propoxy)-2′-chloro-2-methyl-[1,1′-biphenyl]-3-yl)methoxy)-5-chloro-2-((5-cyanopyridin-3-yl)methoxy)benzyl)piperidine-2-carboxylic Acid] | 0.21 to 10
20 | CCOC(=O)C1(O)CCN(CCCOc2cccc(-c3cccc(COc4cc(OCc5cncc(C#N)c5)c(CN[C@](C)(CO)C(=O)O)cc4Cl)c3C)c2Cl)CC1 [Example 1098, (R)-2-((5-chloro-4-((2′-chloro-3′-(3-(4-(ethoxycarbonyl)-4-hydroxypiperidin-1-yl)propoxy)-2-methyl-[1,1′-biphenyl]-3-yl)methoxy)-2-((5-cyanopyridin-3-yl)methoxy)benzyl)amino)-3-hydroxy-2-methylpropanoic Acid] | 0.21 to 10
